From patent US20160177395A1, “BIOMARKERS FOR THE PREDICTION OF RENAL INJURY” (priority 2007, published 2016)
Where “and” joins values, the source holds several entries; their conditions need not be identical. Equal entries are not always repeated.

Tested on: kidney tissues of treated or untreated rats
Assay: Real-time qRT-PCR of marker transcripts in kidney tissue panel, discovery stage (Table 22)
Type: in vivo, rat
Parameters: AI502869_DB71_seg0 normalized Real Time PCR expression: unit not given beside the values
Details: rat kidney, listed as CadCl
Description: Before RT preparation the RNA was treated with DNA-free (Ambion, cat. No. AM1906) DNase treatment and removal—according to manufacturer protocol. DNase procedure was repeated until no DNA is detected in a PCR reaction using the RNA samples.
The mixture is then incubated for 5 min at 65° C. and then quickly chilled on ice. Thereafter, 20 μl of 5× SuperscriptII first strand buffer (Invitrogen, Cat. No. Y00146), 9.6 μl 0.1M DTT (Invitrogen, Cat. No. Y00147) and 160 units RNasin (Promega, Cat. No. N251A) are added, and the mixture is incubated for 10 min at 25° C., followed by further incubation at 42° C. for 2 min. […] The resulting cDNA is diluted 1:20 in TE buffer (10 mM Tris pH=8, 1 mM EDTA pH=8).
cDNA (5 μl), prepared as described above, is used as a template in Real-Time PCR reactions using the SYBR Green I assay (PE Applied Biosystem) with specific primers in 100 nM concentration if not indicated otherwise and UNG Enzyme (Eurogentech or equal) Amplification is effected as follows: 50° C. for 2 min, 95° C. for 10 min, and then 40 cycles of 95° C. for 15 sec, followed by 60° C. for 1 min (if not indicated otherwise). Amplification step is followed by dissociation step. Detection is performed by using the PE Applied Biosystem SDS 7000. The cycle in which the reactions achieved a threshold level (Ct) of fluorescence is registered and is used to calculate the relative transcript quantity in the RT reactions. Non-detected samples are assigned Ct value of 41 and are calculated accordingly. The relative quantity is calculated using the equation Q=efficiencŷ-Ct. The efficiency of the PCR reaction is calculated from a standard curve, created by using serial dilutions of several reverse transcription (RT) reactions. To minimize inherent differences in the RT reaction, the resulting relative quantities are normalized to normalization factor calculated as follows: […]
The relative quantity (Q) of each housekeeping gene in each sample is calculated as described above. In order to calculate the “relative Q relative to MED” each Q for each HSKP gene is divided by the median quantity of this gene in all panel samples. To finally achieve the normalization factor of each sample the geometric mean of all four “relative Q relative to MED” was calculated. The normalization factor was then used for further calculations.
The markers of the present invention were tested with regard to their expression in a panel of kidney tissues samples from treated and control rats. Unless otherwise noted, all experimental data relates to the novel polynucleotides and proteins of the present invention, named according to the segment being tested (as expression was tested through RT-PCR as described). Tests were then performed as described in the “Materials and Experimental Procedures” section above.
The qRT-PCR measurements were normalized according to each samples normalization factor as described in “RT Preparation and Real-Time qRT-PCR Analysis” and further multiplied by a constant factor for ease of viewing.

[1] = day5, individual animals (F and M)
[2] = day28, individual animals (F and M)

## [Cl][Cd][Cl] [Cadmium chloride]
day1, individual animals
  AW919147_DB71_seg0 normalized Real Time PCR expression: 1 (2×) and 1.21 and 0.76 and 1.1 and 1.02
  BI293562_DB71_seg2 normalized Real Time PCR expression: 0.36 and 0.4 and 0.61 and 0.5 and 0.51 and 0.39
  H31045_DB71_seg5 normalized Real Time PCR expression: 1.97 and 0.39 (2×) and 0.19 (2×) and 0.18
  H31799_DB71_seg23 normalized Real Time PCR expression: 1 (2×) and 1.24 and 0.91 and 0.9 and 1.15
  H31883_DB71_seg13 normalized Real Time PCR expression: 0.73 and 0.63 and 0.87 and 0.65 and 0.71 and 0.78
[1]
  H33998_DB71_seg19 normalized Real Time PCR: 2 and 0.82 and 1.39 and 1.36 and 1.64
  MUSCYCG1R_DB81_seg15-17 normalized Real Time PCR: 1.72 and 1.13 and 1.2 and 0.97 and 1.15
  RATLRFI_DB71_seg9 normalized Real Time PCR: 0.35 and 0.31 and 0.17 and 0.18 and 0.29
  RATRAB13X_DB71_seg11-13 normalized Real Time PCR: 0.95 and 0.9 and 0.75 (2×) and 0.62
  RNU24174_DB71_seg8 normalized Real Time PCR: 0.33 and 0.27 and 0.12 (2×) and 0.13
  W41270_DB81_seg11 normalized Real Time PCR: 2.49 and 1.17 and 1.02 and 1.43 and 1.52
  W64472_DB81_seg2 normalized Real Time PCR: 1.65 and 0.78 and 2.23 and 1.89 and 1.63
  W83813_DB81_seg27 normalized Real Time PCR: 3.79 and 1.59 and 1.48 and 1.67 and 1.76
day5, individual animals
  AA686189_DB71_seg6 normalized Real Time PCR expression: 0.47 and 0.29 and 0.39 and 0.5 and 0.38
  AA799594_DB71_seg0 normalized Real Time PCR expression: 1.12 and 0.9 and 1.23 and 0.98 and 1.01
  AA964541_DB71_seg0 normalized Real Time PCR expression: 0.29 and 0.27 and 0.42 (2×) and 0.41
  AI045075_DB71_seg6 normalized Real Time PCR expression: 0.98 and 0.49 and 0.85 and 0.81 and 0.83
  AI454051_DB71_seg0 normalized Real Time PCR expression: 1.54 and 1.35 and 0.84 and 0.68 and 0.92
  AI502869_DB71_seg0 normalized Real Time PCR expression: 0.94 and 0.73 and 0.69 and 0.68 and 0.85
  AW919147_DB71_seg0 normalized Real Time PCR expression: 1.06 and 1.86 and 1.3 and 0.94 and 1
  BI293562_DB71_seg2 normalized Real Time PCR expression: 0.43 and 0.63 and 0.48 and 0.88 and 0.78
  H31045_DB71_seg5 normalized Real Time PCR expression: 0.56 and 0.32 and 0.42 and 0.4 and 0.46
  H31799_DB71_seg23 normalized Real Time PCR expression: 0.83 and 0.99 and 1.17 and 0.98 and 0.94
  H31883_DB71_seg13 normalized Real Time PCR expression: 0.87 and 0.86 and 0.83 and 0.78 and 0.64
[2]
  H33998_DB71_seg19 normalized Real Time PCR: 1.26 and 0.59 and 0.43 and 0.45 and 0.26 and 0.41
  MUSCYCG1R_DB81_seg15-17 normalized Real Time PCR: 0.88 and 0.71 and 0.65 and 0.72 and 0.44 and 0.58
  RATLRFI_DB71_seg9 normalized Real Time PCR: 0.66 and 0.85 and 1.78 and 0.28 and 0.67 and 0.56
  RATRAB13X_DB71_seg11-13 normalized Real Time PCR: 1.37 and 0.92 and 0.96 and 1.11 and 1.08 and 0.88
  RNU24174_DB71_seg8 normalized Real Time PCR: 0.21 and 0.45 and 1.21 and 0.25 (2×) and 0.39
  W41270_DB81_seg11 normalized Real Time PCR: 0.86 and 0.55 and 0.83 and 0.33 and 0.27 and 0.39
  W64472_DB81_seg2 normalized Real Time PCR: 0.89 and 0.55 and 0.43 and 0.67 and 0.47 and 0.57
  W83813_DB81_seg27 normalized Real Time PCR: 0.95 and 0.64 and 0.46 (2×) and 0.34 and 0.53
day28, individual animals
  AA686189_DB71_seg6 normalized Real Time PCR expression: 0.64 and 0.58 and 1.94 and 0.4 and 0.51 and 0.82
  AA799594_DB71_seg0 normalized Real Time PCR expression: 1.14 and 0.88 and 0.37 and 0.66 and 0.77 and 0.83
  AA964541_DB71_seg0 normalized Real Time PCR expression: 0.32 (2×) and 0.42 and 1.72 and 0.55 and 0.72
  AI045075_DB71_seg6 normalized Real Time PCR expression: 1.72 and 1.15 and 0.86 and 0.75 and 0.63 and 0.71
  AI454051_DB71_seg0 normalized Real Time PCR expression: 0.79 and 1.05 and 0.54 and 1.29 and 1.31 and 0.75
  AI502869_DB71_seg0 normalized Real Time PCR expression: 0.73 and 1.22 and 0.44 and 2.47 and 2.93 and 1.18
  AW919147_DB71_seg0 normalized Real Time PCR expression: 0.77 and 0.91 and 0.42 and 1.31 and 1.18 and 0.68
  BI293562_DB71_seg2 normalized Real Time PCR expression: 0.4 and 0.81 and 2.59 and 0.72 and 1.35 and 0.31
  H31045_DB71_seg5 normalized Real Time PCR expression: 2.88 and 0.83 and 0.57 and 2.23 and 2.41 and 2
  H31799_DB71_seg23 normalized Real Time PCR expression: 1.59 and 0.94 and 0.67 and 1.05 and 1.02 and 0.76
  H31883_DB71_seg13 normalized Real Time PCR expression: 0.97 and 1.02 and 0.86 (2×) and 0.95 and 0.8
